US20210371855A1, “METHODS OF INHIBITING PROLIFERATIVE CELLS” (IDEAYA BIOSCIENCES, INC., priority 2018, published 2021)

Legend:
[1] = tested on: MSI cell lines, HCT116 and RKO; experiment: Proliferation with WRN inhibitors, IncuCyte live-cell counting over 6 days; type: cell-based; conditions: FIG. 12
Procedure: (§1) Cell lines were infected with NucLight Red lentivirus (Essen Biosciences cat #4476) to express a red fluorescent protein in the nucleus thus enabling live-cell counting. Two cell lines with high microsatellite instability (MSI), HCT116 and RKO, and two microsatellite stable (MSS) cell lines, SW620 and SW948, were treated with WRN inhibitors, NSC 19630 (Calbiochem cat #681647) and NSC 617145 (Sigma cat #SML 1005) as follows. Cells were counted and seeded in triplicate into a 96-well plate (500 cells/well for MSI and 1000 cells/well for MSS). The next day, the cells were treated with compounds and monitored over 6 days in an IncuCyte ZOOM instrument. The cell count from the last time point was used to calculate IC50 values using GraphPad Prism 7.

[2] = tested on: MSS cell lines, SW620 and SW948; experiment: as above; type: cell-based; conditions: SW620 and SW948, 6 days, FIG. 12
Procedure: as §1

MLH1 reexpressing cells = experiment: 6-thioguanine sensitivity of MLH1 reexpressing cells; type: cell-based; conditions: FIG. 8C
MMR-proficient cells = conditions: Yan et al. 2003; cited from earlier work
MMR-deficient cells = conditions: Yan et al. 2003; cited from earlier work

SMILES | effect on proliferation of MSI cell lines [1] | sensitivity of MSS cell lines to the inhibitors [2] | sensitivity of cells to 6-TG (MLH1 reexpressing cells) | sensitivity of cells to 6-thioguanine (MMR-proficient cells) | sensitivity of cells to 6-thioguanine (MMR-deficient cells)
CCC(=O)OCN1C(=O)C=CC1=O [NSC 19630] | decreased proliferation | differences in sensitivity | – | – | –
CC(C)(CN1C(=O)C(Cl)=C(Cl)C1=O)CN1C(=O)C(Cl)=C(Cl)C1=O [NSC 617145] | decreased proliferation | differences in sensitivity | – | – | –
Nc1nc2nc[nH]c2c(=S)[nH]1 [6-TG, 6-thioguanine] | – | – | more sensitive | sensitive | resistant
